Results reported in patent US6413983B1, “Benzopyranyl heterocycle derivatives, process for preparation thereof, and pharmaceutical compositions containing them” (Dongbu Hannong Chemical Co. Ltd., priority 2000, dated 2002).
Read-outs that look alike come from different tables or passages of the source.

What was measured:
[1] = test system: cerebral cortical neurons; test: Protective activity for neuronal cells against iron-induced damage (LDH release); type: cell-based, rat; conditions: 30 μM compound, 50 uM FeSO4, 24 hours, LDH reduction rate vs control
Method: From the brains of 17-18 day-old rat embryos, cerebral cortical neurons were isolated and then, cultured at 37° C. for 7-9 days in a 5% CO2 incubator. The cortical cell cultures were washed twice with a minimum essential medium (MEM) to reduce the serum concentration to 0.2% and pre-treated for 30 min with 30 μM of each of test compounds. For the experiments, the test compounds were dissolved in DMSO and diluted in a medium. At this time, the final concentration of DMSO was not allowed to exceed 0.2%. For a control group, only vehicle was applied.
After the pre-treatment with test compounds or vehicle, FeSO4 was added to a final concentration of 50 uM, and the cultures were maintained for 24 hours in a CO2 incubator. During incubation, lactate dehydrogenase (LDH) was released into the medium upon neuronal death by the oxidative toxicity of iron. The extent of neuronal damage was assessed by measuring the amount of LDH released into the media. The protective effect of the compounds of interest on neurons was evaluated by calculating the LDH reduction rate of treatment group compared with that of the control group.

[2] = test system: ischemic myocardium damage model of anesthetized rats; test: Cardioprotective activity in ischemic heart models of rats (LAD occlusion/reperfusion, anesthetized rats); type: in vivo, rat; conditions: rat, in vivo, iv, 0.3 mg/kg
Method: After trachetomy, the rats were rendered to respire artificially at a rate of 60/min with a stroke volume of 10 ml/kg. Cannulars were inserted into the fermoral vein and the fermoral artery and used for drug administration and blood pressure measurement, respectively.
In the ischemic myocardial injury models, the body temperature has an important influence on the results. To avoid the change in the body temperature, a body temperature measuring probe was inserted into the rectum of each rat and the body temperature was constantly kept at 37° C. with the aid of a homeothermic blanket control unit.
Afterwards, during testing, a continuous measurement was made of the mean arterial blood pressures and heart rates from the rats. For the measurement of the blood pressure, a pressure transducer, such as that manufactured by Grass Ins., MA, U.S.A., identified as Model Statham P23XL, was used.
The heart rate was measured by a tachometer, such as that manufactured by Gould Inc., Ohio, U.S.A., identified as Biotachometer. In addition, all of the changes occurring were continuously recorded through the Gould 2000 chart recorder, manufactured by Gould Inc.
The left coronary artery was occluded according to the Selye H. method as follows. The rats underwent a left thoracotomy operation for partial opening of the chest and the right-side chest was pressurized by the middle finger of the left hand to push the heart out. Immediately after the left anterior descending coronary artery hereinafter referred to as (LAD) was carefully stitched using a suture needle with 5-0 silk ligature, the heart was then repositioned in the thoracic cavity while both ends of the ligature were situated outside. The opposite ligature ends were passed through a PE tube (PE100, 2.5 cm) and allowed to stand loose for 20 min for stabilization. Via the cannula inserted into the femoral vein, vehicles or drugs were administered into the rats which were rendered to stand for 30 min in order to sufficiently elicit the efficacies of the drugs.
Next, the PE tube which had the doubled strands of the ligature passed therethrough was pushed toward the heart and then, set upright by tightly pulling end regions of the ligature with a hemostatic pincette while pressing the coronary artery.
After the reocclusion of the coronary artery in accordance with the above procedure, the rats were administered with 2 ml of a 1% Evans blue through an intravenous route. Subsequently, an excess of pentobarbital was intravenously injected to kill the rats, after which the heat was removed and then, deprived of the right ventricle and both atria. The left ventricle was cut horizontally to the heart apex into 5 or 6 slices which were weighed. From the surface of each slice, images were input with the aid of a Hi-scope into a computer installed with an image analyzing program (Image Pro Plus). From the images input into the computer, the area of the normal blood stream tissue region which appeared blue in a computer monitor and the area which appeared colorless were measured. The percentage of the colorless area to the total area of each slice was calculated and multiplied by the weight of each slice to determine the area at risk (AAR) of each slice. The AAR obtained from each slice was summed for all slices and the total AAR was divided by the total weight of the left ventricle to yield % AAR, as shown in the following mathematical formula 1:
AAR(%)=(summed AAR for all slices)/(total weight of left ventricle)×100 [Mathematical Formula 1]
During this fixation, 2,3,5-triphenyltetrazolium chloride was reduced into formazan dye by the myocardial dehydrogenase and its cofactor NADH, so that the normal regions of the tissue were colored brick-red. In contrast, the infarct zones of the tissue were deficient in the dehydrogenase and its cofactor, so that no reduction occurred on the 2,3,5-triphenyltetrazolium, allowing the color to remain unchanged.

[3] = test system: isolated rat hearts; test: Cardioprotective activity in isolated ischemic heart models of rats (Langendorff, global ischemia/reperfusion); conditions: for EDP (MmHg): left ventricular end-diastolic pressure after 30 min reperfusion; for LDVP × HR (%): reperfusion double product as % of pretreatment DP, 30 min global ischemia, 30 min reperfusion; for TTC: time to contracture during global ischemia
Method: Male Sprague-Dawley rats weighing 300-450 g were anesthetized with sodium pentobarbital (100 mg/kg, i.p.). The tail vein was injected with heparin (1,000 U/kg) and then the trachea was intubated. […] A latex balloon filled with solvent (ethanol: water=1:1 (v/v)) and attached to a metal cannula was placed in the left ventricle through pulmonary vein and connected to a Isotec pressure transducer (H.S.E., Germany) for measurement of left ventricular pressure (LVP). […] Then, baseline contractile function, heart rate (HR), and coronary flow (CF) (extracorporeal electromagnetic flow probe, Narco Bio-System, U.S.A.) were measured. Cardiac contractile function was calculated by subtracting LVEDP from LV peak systolic pressure (LVSP), yielding developed pressure (LVDP). Double product (DP), another important parameter for assessing cardiac performance, was calculated by multiplying HR by LVDP. Throughout the experiment, all these parameters were measured, and calculated before and 10 min after pretreatment with each compound and 30 min after the onset of reperfusion with buffer. Data on reperfusion DP were further expressed as the percentage to pretreatment DP.
We then rendered the hearts globally ischemic by completely shutting off the perfusate for 30 min. Severity of ischemia was determined as the time to contracture (TTC, min) during global ischemia in which the first 5 mmHg increase in EDP was observed. Then, the hearts were reperfused and, 30 min later, contractile function (LVDP, DP) and cumulative reperfusion lactate dehydrogenase (LDH) release were measured. LDH was measured as a sensitive index for loss of cell viability with a kit supplied by Boerhinger Mannheim based on the technique of Wroblewski and LaDue [F. Wroblewski and JS.

[4] = test system: isolated rat aorta constricted with methoxamine; test: Vasodilation effects on isolated aorta of rats (methoxamine-constricted rings); conditions: isolated rat aorta constricted with methoxamine (3 μM); 50% relaxation
Description: Male Sprague-Dawly rats (350-450 g, obtained from the Experimental Animal Team of the Korea Research Institute of Chemical Technology) were knocked unconscious by hitting the occipital region, sacrificed by cervical dislocation, and underwent thoracotomy. After being quickly removed, the thoracic aorta was deprived of the adipose tissue and cut into aortic rings of 3 mm width. The aorta was lightly rubbed with cotton club soaked in a modified Krebs Henseleit buffer (Physiological Salt Solution, PSS) to remove the inner epithelial layer therefrom.
Thereafter, 3×10^−6 M methoxamine was applied to induce an intensive constriction in the vascular smooth muscle. When the vasoconstriction induced by the methoxamine was reached and maintained to a maximum, test compounds and controls were cumulatively added to the organ baths in concentrations of 1, 3, 10 and 30 μM so as to examine the vasodilation effect.
The change rate of constriction by the addition of the drugs compared to the maximal constriction induced by methoxamine was calculated to plot a concentration-relaxation response curve.

[5] = 10 μM, cumulative reperfusion LDH release

Compound | % Protection [1] | EDP (MmHg) ([3]; 10 μM) | LDVP × HR (%) ([3]; 10 μM) | TTC ([3]; 10 μM) | IC50 [4] | LDH (U/g) [3, 5] | also measured
CCOC(=O)[C@@H]1Cc2cc(OC)ccc2N1[C@H]1c2cc([N+](=O)[O-])ccc2O[C@](C)(C(OC)OC)[C@@H]1O [Example 12, 1-[(2S, 3R, 4S)-3,4-dihydro-2-dimethoxymethyl-3-hydroxy-2-methyl-6-nitro-2H-1-benzopyran-4-yl]-(2S)-2,3-dihydro-1H-5-methoxyindole-2-carboxylic acid ethyl ester] | 85% |  |  |  |  |  | 
CCOC(=O)[C@@H]1Cc2cc(F)ccc2N1[C@H]1c2cc([N+](=O)[O-])ccc2O[C@](C)(C(OC)OC)[C@@H]1O [Example 16, 1-[(2S, 3R, 4S)-3,4-dihydro-2-dimethoxymethyl-3-hydroxy-2-methyl-6-nitro-2H-1-benzopyran-4-yl]-(2S)-2,3-dihydro-1H-5-fluoroindole-2-carboxylic acid ethyl ester] | 73% |  |  |  |  |  | 
CCOC(=O)[C@H]1Cc2cc(OC)ccc2N1[C@@H]1c2cc([N+](=O)[O-])ccc2O[C@@](C)(C(OC)OC)[C@H]1O [Example 36, 1-[(2R, 3S, 4R)-3,4-dihydro-2-dimethoxymethyl-3-hydroxy-2-methyl-6-nitro-2H-1-benzopyran-4-yl]-(2R)-2,3-dihydro-1H-5-methoxyindole-2-carboxylic acid ethyl ester] |  | 23.3 MmHg | 53.1% | 24.7 min | > 30 µM |  | AAR/LV (%) [2]: 37.5%; IZ/AAR (%) [2]: 41.4%; LDH (U/g) [3]: 18.9 U/g
COC(=O)[C@H]1Cc2ccccc2N1[C@H]1c2cc([N+](=O)[O-])ccc2O[C@](C)(C(OC)OC)[C@@H]1O [Example 5, 1-[(2S, 3R, 4S)-3,4-dihydro-2-dimethoxymethyl-3-hydroxy-2-methyl-6-nitro-2H-1-benzopyran-4-yl]-1H-(2R)-2,3-dihydroindole-2-carboxylic acid methyl ester] | 79% |  |  |  |  |  | 
CCOC(=O)[C@@H]1Cc2ccccc2N1[C@@H]1c2cc([N+](=O)[O-])ccc2O[C@](C)(C(OC)OC)[C@H]1O [Example 4, 1-[(2S, 3S, 4R)-3,4-dihydro-2-dimethoxymethyl-3-hydroxy-2-methyl-6-nitro-2H-1-benzopyran-4-yl]-(2S)-2,3-dihydro-1H-indole-2-carboxylic acid ethyl ester] |  |  |  |  |  |  | % Protection ([1]; listed as EX. 4): 98%
(2S, 2aS, 10aR)-[(3,4-b)-2a,10a-dihydro-2-dimethoxymethyl-2-methyl-12-nitro-2H-1-benzopyrano]-[(1,2-d)-10H-indolino]-4-oxomorpholine [Example 63] | 100% |  |  |  |  |  | 
(2S, 2aR, 10aS)-[(3,4-b)-2a,10a-dihydro-2-dimethoxymethyl-2-methyl-12-nitro-2H-1-benzopyrano]-[(1,2-d)-10H-indolino]-4-oxomorpholine [Example 62] |  | 36.5 MmHg | 67.2% | 23.1 min | > 30 µM | 20.5 U/g | 
CCOC(=O)[C@H]1Cc2cc(F)ccc2N1[C@H]1c2cc([N+](=O)[O-])ccc2O[C@](C)(C(OC)OC)[C@@H]1O [Example 15, 1-[(2S, 3R,4S)-3,4-dihydro-2-dimethoxymethyl-3-hydroxy-2-methyl-6-nitro-2H-1-benzopyran-4-yl]-(2R)-2,3-dihydro-1H-5-fluoroindole-2-carboxylic acid ethyl ester] |  | 2.7 MmHg | 53.3% | 24.8 min | > 30 µM | 12.0 U/g | 
CC1(C)Oc2ccc(C#N)cc2C(N2CCCC2=O)C1O (stereo not shown) [CromaKalim, Cromakalim, reference compound] |  |  |  |  | 0.067 µM |  | 
COC(=O)[C@H]1CCc2ccccc2N1[C@H]1c2cc([N+](=O)[O-])ccc2O[C@](C)(C(OC)OC)[C@@H]1O [Example 54, 1-[(2S, 3R, 4S)-3,4-dihydro-2-dimethoxymethyl-3-hydroxy-2-methyl-6-nitro-2H-1-benzopyran-4-yl]-(2R)-1,2,3,4-tetrahydro-1H-quinoline-2-carboxylic acid methyl ester] | 100% |  |  |  |  |  | % Protection ([1]; listed as EX. 54): 101%
COC(=O)c1cc2ccccc2n1[C@H]1c2cc([N+](=O)[O-])ccc2O[C@](C)(C(OC)OC)[C@@H]1O [Example 48, 1-[(2S, 3R, 4S)-3,4-dihydro-2-dimethoxymethyl-3-hydroxy-2-methyl-6-nitro-2H-1-benzopyran-4-yl]-1H-indole-2-carboxylic acid methyl ester] |  | 9.5 MmHg | 79.5% | 22.0 min | 24 µM | 16.7 U/g | 
COC(=O)[C@@H]1Cc2ccccc2N1[C@H]1c2cc([N+](=O)[O-])ccc2O[C@](C)(C(OC)OC)[C@@H]1O [Example 6, 1-[(2S, 3R, 4S)-3,4-dihydro-2-dimethoxymethyl-3-hydroxy-2-methyl-6-nitro-2H-1-benzopyran-4-yl]-1H-(2S)-2,3-dihydroindole-2-carboxylic acid methyl ester] |  | 21 MmHg | 62.2% | 24.5 min | 15.6 µM | 10.4 U/g | 
COC(=O)[C@H]1CCc2ccccc2N1[C@@H]1c2cc([N+](=O)[O-])ccc2O[C@](C)(C(OC)OC)[C@H]1O [Example 56, 1-[(2S, 3S, 4R)-3,4-dihydro-2-dimethoxymethyl-3-hydroxy-2-methyl-6-nitro-2H-1-benzopyran-4-yl]-(2R)-1,2,3,4-tetrahydro-1H-quinoline-2-carboxylic acid methyl ester] |  | 29.0 MmHg | 61.0% | 22.2 min | 11.4 µM | 18.8 U/g | 
